{"source": "patent US20160281077A1", "about": "“MEDIUM AND METHOD FOR CULTURING EUGLENA AND METHOD FOR REDUCING PHOTOINHIBITION IN EUGLENA” (Euglena Co., Ltd., priority 2015, published 2016)", "key": {"[1]": {"tested_on": "Euglena gracilis Z", "assay": "Study 3: photocurrent after addition of Euglena and of electron transport inhibitor DBMIB", "format": "cell-based", "settings": "DBMIB 100 μM added after about 37 minutes to PMF 3 g/L medium with Euglena; current before about 8 μA", "experimental": "To determine whether the effect of the medium supplemented with PMF in facilitating the proliferation of Euglena in electrochemical culture as shown by the Studies 1 and 2 is attributed to extracellular transfer of electrons from Euglena, DBMIB (2,5-dibromo-3-methyl-6-isopropyl-p-benzoquinone), which is an electron transport inhibitor, was added to the culture system that included PMF, and a change in photocurrent was measured.\nDBMIB binds to the plastoquinone-binding site of the cytochrome b6f and prevents the oxidation of reduced plastoquinone thereby inhibiting electron transport. DBMIB inhibits the transfer of electrons from plastoquinone to the photosystem I and thus is used to measure the activity of the photosystem II.\nIn the Study 3, the CM medium having a PMF concentration of 3 g/L was placed into the same three-electrode electrochemical cell as the Study 1. Then, the electrochemical cell was placed into a shielded enclosure to measure the photocurrent.\nAfter about 21 minutes from the start of the measurement, the precultured Euglena was added at an initial density (OD800) of 0.5. After about 37 minutes from the start of the measurement, DBMIB was added at a concentration of 100 μM to the medium."}, "[2]": {"tested_on": "Euglena gracilis Z", "assay": "Study 2 and reference study: proliferation (cell density) of Euglena under strong or weak light", "format": "cell-based", "settings": "0.5 mM ascorbic acid in place of PMF", "experimental": "The CM medium having a PMF concentration of 0.5 g/L was placed into the same three-electrode electrochemical cell as the Study 1.\nTo the medium, the precultured Euglena was added at an initial density (OD800) of 0.05 and electrochemically cultured under strong light having an intensity of 5000 lux, which is about one tenth of the maximum intensity of sunlight. After 0, 24, 48, 76, 96, and 148 hours from the start of the culture, the cell density was determined (Example 2). The voltage applied was +0.6 V vs. SHE.\nA similar study was performed on Euglena non-electrochemically cultured in the medium that included no PMF (Comparative Example 3).\nA similar study was also performed on Euglena electrochemically cultured in the medium that included PMF (Comparative Example 4) and Euglena electrochemically cultured in the medium that included no PMF (Comparative Example 5) under weak light having an intensity of 1000 lux, which is about one fiftieth of the maximum intensity of sunlight.\nIn the study, proliferation of Euglena that were cultured in the medium supplemented with or without 0.5 mM of ascorbic acid in place of PMF used in the Study 2 under strong light or under weak light was compared. The study was performed in the same manner as in the Study 2 except that 0.5 mM of ascorbic acid was added in place of PMF."}}}
{"smiles": "CC1=C(Br)C(=O)C(C(C)C)=C(Br)C1=O", "note": "[DBMIB, 2,5-dibromo-3-methyl-6-isopropyl-p-benzoquinone]", "values": [{"measurement": "current after addition of DBMIB", "setting": "[1]", "result": "about 4 μA"}]}
{"smiles": "O=C1O[C@H]([C@@H](O)CO)C(O)=C1O", "note": "[ascorbic acid]", "values": [{"measurement": "facilitating the proliferation of Euglena under strong light", "setting": "[2]; strong light (5000 lux)", "result": "effective in facilitating the proliferation of Euglena"}, {"measurement": "facilitating the proliferation of Euglena under weak light", "setting": "[2]; weak light (1000 lux)", "result": "not effective in facilitating the proliferation"}]}
